Experimental data: ChEMBL document CHEMBL1201862, “PubChem BioAssay data set” (2004)
Values joined by “and” are separate entries in the source; they are usually repeats but may differ in a detail not shown here. Identical values can stand only once.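 1) Cells in 96-well plates. 2) Compound, 48 h, 5 concentrations. 3) Linear interpolation between surrounding doses. 4) Unreached endpoint = highest concentration. GI50 = concentration required for 50% inhibition of growth.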 Active and inactive are the calls of the source. Cut-off read from the data, not from the text of the source: active = GI50 up to about 1.1 µM and inactive = higher.

Assays:
Experiment in all cases: NCI-60 cell line screen, 48 h
DMS-114 = system: DMS-114
DMS-273 = system: DMS-273
HOP-18 = system: HOP-18
LXFL 529 = system: LXFL 529
M19-MEL = system: M19-MEL
RXF 631 = system: RXF 631
XF498 = system: XF498
BT-549 = system: BT-549
Hs-578T = system: Hs-578T

| Compound | GI50 (DMS-114) | GI50 (DMS-273) | GI50 (HOP-18) | GI50 (LXFL 529) | GI50 (M19-MEL) | GI50 (RXF 631) | GI50 (XF498) | GI50 (BT-549) | GI50 (Hs-578T) |
| --- | --- | --- | --- | --- | --- | --- | --- | --- | --- |
| NC(=O)/C(=N\NC(=O)C[n+]1ccccc1)C1NC(=O)NC1=O (centres undefined) | > 100 µM (inactive) | > 100 µM (inactive) | > 100 µM (inactive) | > 100 µM (inactive) | > 100 µM (inactive) | > 100 µM (inactive) | > 100 µM (inactive) |  |  |
| C[C@]12CCC3[C@@H](CC[C@@H]4c5nonc5CC[C@]34C)C1CC[C@@H]2O (some centres undefined) | 29.2 µM (inactive) | 23.9 µM (inactive) | 36.4 µM (inactive) | 37 µM (inactive) | 48 µM (inactive) | 33.1 µM (inactive) | 20.3 µM (inactive) |  |  |
| CCOC(=O)C(C(=O)c1ccccc1-c1ccccc1C(=O)O)=P(c1ccccc1)(c1ccccc1)c1ccccc1 | 20.1 µM (inactive) | 31.8 µM (inactive) |  | 24.9 µM (inactive) | 27.8 µM (inactive) | 37.8 µM (inactive) | 23.3 µM (inactive) |  |  |
| CCN(CC)CC(C)(C)C(=O)/C=C/c1cccc(/C=C/C(=O)C(C)(C)CN(CC)CC)c1 | 0.307 µM (active) | 0.476 µM (active) | 1.51 µM (inactive) | 0.331 µM (active) | 0.959 µM (active) | 1.09 µM (active) | 0.409 µM (active) |  |  |
| Cc1cc2c(c(C#N)c1C)NC(=O)CCC2=O | > 100 µM (inactive) | > 100 µM (inactive) |  | > 100 µM (inactive) | > 100 µM (inactive) | > 100 µM (inactive) | > 100 µM (inactive) |  |  |
| COc1ccc(-c2cc(-c3ccco3)c(C#N)c(=O)n2C2OC(OC(=O)c3ccccc3)C(OC(=O)c3ccccc3)C2OC(=O)c2ccccc2)cc1 (centres undefined) | > 100 µM (inactive) | 63.4 µM (inactive) | > 100 µM (inactive) | > 100 µM (inactive) | > 100 µM (inactive) | > 100 µM (inactive) |  |  |  |
| C=CC1(C(=O)O)CCC(C(C)(C)C)CC1 (centres undefined) | > 100 µM (inactive) | > 100 µM (inactive) | > 100 µM (inactive) | > 100 µM (inactive) | > 100 µM (inactive) | > 100 µM (inactive) | > 100 µM (inactive) |  |  |
| COC(=O)C(CCCCCCCC(C(=O)OC)C1=Nc2nnc(N)n2C1=O)C1=Nc2nnc(N)n2C1=O (centres undefined) | > 100 µM (inactive) | > 100 µM (inactive) | > 100 µM (inactive) | > 100 µM (inactive) | 26.1 µM (inactive) | > 100 µM (inactive) | > 100 µM (inactive) |  |  |
| COc1cc2c(Cc3cc(OCc4ccccc4)ccc3N)nccc2c(OC)c1OC | > 10 µM (inactive) | > 10 µM (inactive) | > 10 µM (inactive) | > 10 µM (inactive) | > 10 µM (inactive) | 6.55 µM (inactive) | > 10 µM (inactive) |  |  |
| C[C@@H]1C[C@@H]2C(=O)N(c3ccccc3)C(=O)[C@@H]2c2[nH]c3ccc(Br)cc3c21 | 53 µM (inactive) | > 100 µM (inactive) | 24.1 µM (inactive) | 37.6 µM (inactive) | 70.8 µM (inactive) | 28.8 µM (inactive) | 26.1 µM (inactive) |  |  |
| N#CC(c1ccccc1)c1nc2ccc(N)cc2[n+]([O-])c1C(C#N)c1ccccc1 (centres undefined) |  | 45.9 µM (inactive) | > 100 µM (inactive) | 51.1 µM (inactive) | 55.1 µM (inactive) | 86.9 µM (inactive) | 48.5 µM (inactive) |  |  |
| C1=Cc2nc1c(-c1ccncc1)c1ccc([n-]1)c(-c1ccncc1)c1nc(c(-c3ccncc3)c3ccc([n-]3)c2-c2ccncc2)C=C1.[Zn+2] | > 100 µM (inactive) |  |  | > 100 µM (inactive) | > 100 µM (inactive) | > 100 µM (inactive) | > 100 µM (inactive) |  |  |
| O=c1ncccn1[C@@H]1O[C@H](CO)[C@@H](O)[C@@H]1F | > 100 µM (inactive) and > 58.7 µM (inactive) | > 100 µM (inactive) | > 100 µM (inactive) | > 100 µM (inactive) | > 100 µM (inactive) | > 51.6 µM (inactive) | > 100 µM (inactive) |  |  |
| O=C(O)CCCc1ccc(N(CCCl)CCCl)cc1 [CHLORAMBUCIL] | 45.1 µM (inactive) | 23.7 µM (inactive) | > 81.1 µM (inactive) | 95.5 µM (inactive) | 87.7 µM (inactive) | 86.9 µM (inactive) | 55.1 µM (inactive) | 112 µM (inactive) | 189 µM (inactive) |
